In paper PMC6597290 (Nature, 2019):

Columns and labels:
BT4096 = biological target: T1, BT4096 (Bacteroides thetaiotaomicron, UniProt Q8A0C5); assay: LC-MS time course of deacetylation; format: biochemical; settings: Tris-HCl 10 mM pH 7, 2.5 mM MgSO4 and Mn, 37 °C; 0-250 µM substrate
T1 sequence (Q8A0C5 21-460): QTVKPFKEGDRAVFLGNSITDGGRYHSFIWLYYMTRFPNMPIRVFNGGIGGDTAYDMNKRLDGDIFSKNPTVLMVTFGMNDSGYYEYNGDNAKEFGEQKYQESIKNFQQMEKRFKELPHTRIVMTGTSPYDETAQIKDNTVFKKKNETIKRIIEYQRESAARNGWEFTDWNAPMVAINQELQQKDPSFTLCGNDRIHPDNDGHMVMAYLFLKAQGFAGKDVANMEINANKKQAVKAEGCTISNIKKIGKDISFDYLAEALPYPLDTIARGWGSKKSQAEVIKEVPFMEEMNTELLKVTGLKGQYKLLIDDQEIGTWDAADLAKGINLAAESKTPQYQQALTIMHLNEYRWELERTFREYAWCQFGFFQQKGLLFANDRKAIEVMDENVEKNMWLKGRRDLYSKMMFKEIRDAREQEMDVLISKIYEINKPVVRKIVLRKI

BT2068 = biological target: T2, BT2068 (Bacteroides thetaiotaomicron, UniProt Q8A618); assay: LC-MS drug depletion by E. coli expressing bt2068; format: cell-based; settings: whole E. coli cells, anaerobic, 37 °C
T2 sequence (Q8A618 1-253): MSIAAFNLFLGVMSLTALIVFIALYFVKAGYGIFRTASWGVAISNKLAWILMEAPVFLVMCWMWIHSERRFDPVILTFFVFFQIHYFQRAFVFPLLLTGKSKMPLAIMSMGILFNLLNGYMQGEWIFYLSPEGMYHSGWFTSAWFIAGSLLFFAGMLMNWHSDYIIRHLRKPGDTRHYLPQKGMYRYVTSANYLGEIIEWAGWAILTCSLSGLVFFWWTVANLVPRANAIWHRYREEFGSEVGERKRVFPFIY

Structure (SMILES) | LC-MS time course of deacetylation (BT4096) | LC-MS drug depletion by E. coli expressing bt2068 (BT2068)
CNCCN1C(=O)[C@H](OC(C)=O)[C@H](c2ccc(OC)cc2)Sc2ccccc21 [N-desmethyldiltiazem] | BT4096 also deacetylates N-desmethyldiltiazem | –
COc1ccc([C@@H]2Sc3ccccc3N(CCN(C)C)C(=O)[C@@H]2OC(C)=O)cc1 [diltiazem] | demonstrated that the purified enzyme catalyzes the drug transformation (Fig. 3c) | –
C#C[C@]1(O)CC[C@H]2[C@@H]3CCC4=CC(=O)CC[C@@H]4[C@H]3CC[C@@]21CC [levonorgestrel] | – | BT2068 also metabolizes the structurally related compounds levonorgestrel and progesterone
CC(=O)[C@H]1CC[C@H]2[C@@H]3CCC4=CC(=O)CC[C@]4(C)[C@H]3CC[C@]12C [progesterone] | – | BT2068 also metabolizes the structurally related compounds levonorgestrel and progesterone
